Results: patent US20040180862A1, “Compositions and methods for inhibiting bone resorption” (priority 2001, published 2004)
“Also recorded” adds a separate entry of the source. Where two headings read alike, the source gives them in different places.

Experiments:
[1] = system: Ch1.Es esophageal fibroblasts; assay: Activation of pro-apoptotic kinases (in-gel kinase assay, phospho-specific immunoblotting); assay type: cell-based; conditions: 300 μM, 24 hours
Procedure: Cell lysates were analyzed using an in-gel kinase assay (top) or by immuno-blotting with anti-phospho-specific antibodies recognizing active MAP kinases (Erk1 and 2), p38, or Jun N-terminal kinase (Jnk).

[2] = system: Ch1.Es esophageal fibroblasts; assay: Protein isoprenylation in Ch1.Es fibroblasts (immunoblot with anti-hDNAJ and anti-Rap1A markers); assay type: cell-based
Procedure: (§1) Cells were treated for 24 hours and protein lysates were analyzed for suppression of protein isoprenylation. Markers included either anti-hDNAJ, a farnesylated protein that migrates more slowly when farnesylation is absent (two bands observed) or anti-Rap1A, which we have shown previously to bind preferentially to Rap1A if isoprenylation is blocked (presence of a band indicates absence of protein geranylgeranylation) (See Reszka, A. A., Halasy-Nagy, J. and Rodan, G. A. Molecular Pharmacology 59:193-202, 2001).
(A) Cells pretreated for 24 hours with nothing or the squalene synthase inhibitor, zaragozic Acid A (Zara-A) at 3 μM (three lanes indicated).
as §1, with “geranylgeranylation. See FIG. 1.” for “geranylgeranylation) (See Reszka, A. A., Halasy-Nagy, J. and Rodan, G. A. Molecular Pharmacology 59:193-202, 2001).”
(A) Cells pretreated for 24 hours with nothing or the squalene synthase inhibitor, Zaragozic Acid A (Zara-A) at 3 μM (three lanes indicated).

[3] = system: Ch1.Es esophageal fibroblasts; assay: Apoptosis in Ch1.Es cells (cell rounding and detachment from the dish); assay type: cell-based; conditions: for induction of apoptosis: bisphosphonate 300 μM, 24 hours; for suppression of ALN-induced apoptosis in absence of lipoprotein / suppression of RIS-induced apoptosis in absence of lipoprotein: FIG. 3: LPDS, Zara-A 10 μM; for suppression of ALN-induced apoptosis in absence of lipoprotein: ALN 300 μM 24 hours; for suppression of RIS-induced apoptosis in absence of lipoprotein: RIS 300 μM 24 hours
Procedure: Apoptosis is observed as cell rounding and detachment from the dish.
Ch1.Es cells were grown for 24 hours in either fetal bovine serum (FBS) (top panels) or lipoprotein-deficient […] (LPDS) in the absence (middle) or presence (bottom) of Zara-A (10 μM). […] (300 μM). Phenotypes were scored as in FIG. 2. The suppression of apoptosis is near complete after inclusion of Zara-A.

skin [4] = conditions: subcutaneous, 5 days; for effect of coadministered Zara-A on ALN-induced skin irritation / thickening: ALN 0.5 mg/kg with Zara-A 3 μg/kg; for effect of coadministered Zara-A on ALN-induced skin irritation / thickening / effect of coadministered Zara-A on RIS-induced skin irritation / thickening: P≦0.01; for effect of coadministered Zara-A on RIS-induced skin irritation / thickening: RIS 0.5 mg/kg with Zara-A 3 μg/kg
skin [5] = assay: Skin irritation after subcutaneous injection, histology (hematoxylin and eosin, affected area); assay type: in vivo, Rats; conditions: 5 days
Procedure: Skin was harvested after necropsy, fixed with formalin, thin-sectioned and stained with hematoxylin and eosin. Area was determined by measuring the thickness and length of each affected area and is represented vs. the H2O control.

[6] = ALN 300 μM, 24 hours, absence of Zara-A
[7] = listed as squalene synthase inhibitor
[8] = Zara-A 0.1-10 μM pretreated 24 hours, then ALN 300 μM 24 hours

Structure (SMILES)	activation of pro-apoptotic kinases [1]	inhibition of Rap1A geranylgeranylation [2, 6]	inhibition of hDNAJ farnesylation [2, 6]	induction of apoptosis [3]	volume of affected skin area (skin [4]; 0.5 mg/kg, vehicle control 50-100) [mm^3]	skin irritation (skin [5]; 0.5 mg/kg)	effect of coadministered Zara-A on ALN-induced skin irritation / thickening (skin [4])	effect of coadministered Zara-A on ALN-induced skin irritation / thickening (skin [4]; [7])	effect of coadministered Zara-A on RIS-induced skin irritation / thickening (skin [4])	effect of coadministered Zara-A on RIS-induced skin irritation / thickening (skin [4]; [7])	suppression of ALN-induced skin irritation (skin [5]; FIG. 6: ALN 0.5 mg/kg with Zara-A 3 μg/kg)	effect of Zara-A pretreatment on ALN inhibition of Rap1A geranylgeranylation ([2]; Zara-A 3 μM pretreated 24 hours, then ALN 300 μM 24 hours)	effect of Zara-A on capacity of ALN to inhibit Rap1A geranylgeranylation [2, 8]	effect of Zara-A on capacity of ALN to inhibit hDNAJ farnesylation [2, 8]	suppression of ALN-induced apoptosis ([3]; FIG. 2: Zara-A 24 hours, then ALN 300 μM 24 hours)	suppression of ALN-induced apoptosis in absence of lipoprotein [3]	suppression of ALN-induced apoptosis in absence of lipoprotein [3, 7]	suppression of RIS-induced apoptosis in absence of lipoprotein [3]	suppression of RIS-induced apoptosis in absence of lipoprotein [3, 7]
NCCCC(O)(P(=O)(O)O)P(=O)(O)O [ALN, 4-amino-1-hydroxybutylidene-1,1-bisphosphonic acid monosodium trihydrate]	activate	strongly inhibits	strongly inhibits	induced	–	–	–	–	–	–	–	–	–	–	–	–	–	–	–
O=P(O)(O)C(O)(Cc1cccnc1)P(=O)(O)O [RIS, 1-hydroxy-2-(3-pyridinyl)-ethylidene-1,1-bisphosphonic acid]	activate	–	–	induced	240	Skin irritation induced	–	–	–	–	–	–	–	–	–	–	–	–	–
C=C(CC[C@]12O[C@H](C(=O)O)[C@@](O)(C(=O)O)[C@](C(=O)O)(O1)[C@H](OC(=O)/C=C/[C@@H](C)C[C@@H](C)CC)[C@H]2O)[C@@H](OC(C)=O)[C@H](C)Cc1ccccc1 [Zara-A, zaragozic Acid A]	–	–	–	–	–	–	significantly reduced	suppresses	significantly reduced	suppresses	suppresses	reduced; also recorded: diminished	dose-dependently reduces; also recorded: dose-dependently diminished	dose-dependently reduces; also recorded: dose-dependently diminished	suppression	near complete	maximally suppresses	near complete	maximally suppresses
